# In US20220235065A1 (Epizyme, Inc., priority 2016, published 2022):
# Target: T1, recombinant purified human EHMT2 913-1193 (Homo sapiens, UniProt Q96KQ7)
# T1 construct: Recombinant purified human EHMT2 913-1193 (55 μM) synthesized by Viva was used for all experiments; purchased Viva
# T1 sequence (Q96KQ7 913-1193): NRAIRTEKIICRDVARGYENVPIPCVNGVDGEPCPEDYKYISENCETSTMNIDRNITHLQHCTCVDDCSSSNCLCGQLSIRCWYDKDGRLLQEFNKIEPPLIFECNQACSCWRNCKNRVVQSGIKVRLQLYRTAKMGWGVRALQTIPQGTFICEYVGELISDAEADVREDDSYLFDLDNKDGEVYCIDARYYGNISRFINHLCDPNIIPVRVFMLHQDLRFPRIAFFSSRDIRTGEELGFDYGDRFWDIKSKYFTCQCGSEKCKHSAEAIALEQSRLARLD
# Test: EHMT2 enzyme assay on histone peptide substrate (3H-SAM Flashplate)
# Assay type: biochemical
# Conditions: read-out: EHMT2 PEP (IC50 μM)
# How it was run: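 Compounds (10-point 3-fold series, top 50 μM final, 2% DMSO) preincubated 30 min with 0.031 nM EHMT2 in 20 mM Bicine pH 7.5, 1 mM TCEP; reaction started with 3H-SAM and biotinylated H3 1-15 peptide, both at Km, run 60 min at room temperature. Flashplate capture; IC50 from four-parameter fit, triplicates.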
row,SMILES,IC50
1,CNCc1cnn(-c2c(F)ccc(Nc3nc(C)cc(NC)n3)c2OC)c1 [Compound 318],0.1 to 1 µM
2,CNC1=Nc2cc(-n3cc(C4CCCN4)cn3)c(OC)cc2C12CCC2 (stereo not shown) [Compound 322],< 0.1 µM
3,CNCc1cnn(-c2cc(Nc3nc(C)cc(NC)n3)ccc2C(F)(F)F)c1 [Compound 325],< 0.1 µM
4,CNC1=Nc2cc(-n3cc(C4CCCN4)cn3)c(Cl)cc2C12CCC2 (stereo not shown) [Compound 326],< 0.1 µM
5,CNCc1cnn(-c2c(Cl)ccc(Nc3nc(C)cc(NC)n3)c2Cl)c1 [Compound 327],< 0.1 µM
6,CNCc1cnn(-c2c(Cl)ccc(Nc3nc(C)cc(NC)n3)c2F)c1 [Compound 328],< 0.1 µM
7,CNCc1cnn(-c2c(F)ccc(Nc3nc(C)cc(NC)n3)c2Cl)c1 [Compound 329],< 0.1 µM
8,CNc1cc(C)nc(Nc2ccc(Cl)c(-n3cc(C4CCCN4)cn3)c2)n1 (stereo not shown) [Compound 330],< 0.1 µM

# Second part, the molecule after the results:
row,IC50,SMILES
1,< 0.1 µM,"CNCc1cnn(-c2c(OC)ccc(Nc3nc(C)cc(NC)n3)c2F)c1 [Compound 317, N2-(2-fluoro-4-methoxy-3-(4-((methylamino)methyl)-1H-pyrazol-1-yl)phenyl)-N4,6-dimethylpyrimidine-2,4-diamine]"
2,< 0.1 µM,CNCc1cnn(-c2cc(Nc3nc(C)cc(NC)n3)ccc2Br)c1 [Compound 319]
3,< 0.1 µM,CCc1ccc(Nc2nc(C)cc(NC)n2)cc1-n1cc(CNC)cn1 [Compound 320]
4,< 0.1 µM,CNc1cc(C)nc(Nc2ccc(OC)c(-n3cc(C4CCCN4)cn3)c2)n1 (stereo not shown) [Compound 321]
5,< 0.1 µM,CNCc1cn(-c2cc(Nc3nc(C)cc(NC)n3)ccc2OC)nc1F [Compound 323]
6,0.1 to 1 µM,CNCc1cc(-c2cc(Nc3nc(C)cc(NC)n3)ccc2OC)on1 [Compound 324]
7,< 0.1 µM,CNCc1cc(-c2cc(Nc3nc(C)cc(NC)n3)ccc2OC)no1 [Compound 331]
8,< 0.1 µM,CNc1cc(C)nc(Nc2ccc(OC)c(-c3cc4[nH]cc(C)c4cn3)c2)n1 [Compound 386]
